What all share (test): inhibition of tumour cell growth, NCI panel, 48 h
Experiment [1] deals with CCRF-CEM leukemia.
The subject of experiment [2] is HCC-2998 colon.
Experiment [3] deals with HT29 colon.
For experiment [4], the system named is MCF7 breast.
In experiment [5] the test system is MDA-MB-231 breast.
Experiment [6] has as its system NCI-H460 lung.
Experiment [7] deals with OVCAR-4 ovarian.
The subject of experiment [8] is OVCAR-8 ovarian.
In experiment [9] the test system is PC-3 prostate.
For experiment [10], the system named is SF-539 CNS.
Experiment [11] has as its system SK-OV-3 ovarian.
Experiment [12] relates to SNB-19 CNS.

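All cell lines were grown in 96-well plates and treated with compound for 48 hours. TGI denotes the concentration required for complete inhibition of growth.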

In the case of `O=C1CC2SC(COCc3ccccc3)(CCN2Cc2ccccc2)C1` (centres undefined), the TGI in [1] is over 100 µM; in [2], over 100 µM; in experiment [3], over 100 µM; in experiment [4], 81.9 µM; in experiment [5], over 100 µM; in experiment [6], over 100 µM. Also, the TGI in [7], in experiment [8], in experiment [9], in experiment [10], in experiment [11] and in experiment [12] was over 100 µM each time.
Regarding `CC(O)[C@@]1(c2ccccc2)CC2(CCN(C)CC2)O[C@H]1C` (some centres undefined), the TGI in [1] is 79 µM; in [2] it was over 100 µM; in [3], over 100 µM; in [4], over 100 µM; in experiment [5] it was over 100 µM; in experiment [6], over 100 µM. Also, the TGI in experiment [7], in [8], in [9], in [10], in [11] and in experiment [12] was over 100 µM in each case.
With `c1ccc([P+](c2ccccc2)(c2ccccc2)C2c3ccccc3-c3ccccc32)cc1`, the TGI in experiment [1] was found to be 7.61 µM; in [2], 9.62 µM; in [3], 4.04 µM; in [4], 10 µM; in experiment [5] it was 6.84 µM; in [6] it was 10.2 µM. In addition, the TGI was 10.1 µM in [8]; 5.46 µM in [9]; 6.98 µM in experiment [10]; 4.33 µM in experiment [11]; 10.3 µM in [12].
With `O=Nc1c(O)cc(Nc2cccnc2)c2ccccc12`, the TGI in [1] was 26.2 µM; in [2] it was 95.4 µM; in [3], 50.9 µM; in [4], over 100 µM; in [5], 47.3 µM; in [6] it was over 100 µM. Moreover, the TGI in [7] was over 100 µM; in experiment [8] it was over 100 µM; in experiment [9], over 100 µM; in [10], over 100 µM; in [11], over 100 µM; in [12] it was 8.39 µM.
`COc1cc(/C=N/NC2=NCCCCN2)ccc1O`: the TGI in [1], in experiment [2], in experiment [3], in experiment [4], in experiment [5] and in [6] was over 100 µM each time. For the same molecule, the TGI in experiment [7], in experiment [8], in experiment [9], in experiment [10], in experiment [11] and in experiment [12] was over 100 µM throughout.
Consider `C/C(Cc1ccc2c(c1)OCO2)=N\NC(=O)C(C)Sc1nnc(SC(C)C(=O)N/N=C(\C)Cc2ccc3c(c2)OCO3)s1` (centres undefined), for which the TGI in experiment [1], in [2], in experiment [3], in experiment [4], in [5] and in [6] was over 100 µM throughout. Also, the TGI in experiment [7], in [8], in experiment [9], in experiment [11] and in [12] was over 100 µM in each case.
As to `CN(CCCn1ccnc1[N+](=O)[O-])CCCn1ccnc1[N+](=O)[O-]`, the TGI in [1], in [3], in experiment [4], in [5], in [6] and in experiment [7] was over 100 µM each time. For the same molecule, the TGI in [8], in experiment [9], in [10] and in experiment [11] was over 100 µM each time.
Turning to `O=c1oc2ccc([N+](=O)[O-])cc2cc1Br`, the TGI in experiment [1], in experiment [2], in [3], in [4], in [5] and in [6] was over 100 µM in each case. The TGI in experiment [7], in experiment [8], in experiment [9], in experiment [10] and in experiment [12] was over 100 µM each time.
In the case of `CNC(=O)NS(=O)(=O)c1ccc(C)cc1`, the TGI in experiment [1], in [3], in [4], in [5], in [6] and in [7] was over 100 µM in each case. In addition, the TGI in experiment [8], in experiment [9], in [10], in experiment [11] and in [12] was over 100 µM each time.
For the molecule `CCCCC(=O)Nc1ccc2c(C)cc(-c3ccc(-c4cc(-c5ccc(C)cc5)cc(-c5ccc(-c6cc(C)c7ccc(NC(=O)CCCC)nc7n6)cc5)n4)cc3)nc2n1`, the TGI in [1], in experiment [2], in experiment [4], in experiment [5], in [6] and in [7] was over 100 µM each time. The TGI in [9], in experiment [11] and in [12] was over 100 µM in each case.
As for `Cc1ccc(N2C(N)=C(C#N)C(C#N)(C#N)C2c2ccccc2)cc1` (centres undefined), the TGI in [1] came out at 7.33 µM; in experiment [2], 25.8 µM; in experiment [3], 13.9 µM; in [4] it was 18.8 µM; in [5], 25.3 µM; in experiment [7], 26.9 µM. For the same molecule, the TGI is 40.2 µM in [8]; 44.9 µM in experiment [9]; 29.2 µM in [10]; 47.6 µM in experiment [11]; 34.5 µM in experiment [12].
Take `O=C1c2ccccc2C(=O)c2c(NCCCN3CCOCC3)ccc(NCCCN3CCOCC3)c21`: the TGI in experiment [1] is over 100 µM; in [2] it was 27 µM; in experiment [3], 12.7 µM; in experiment [4], 24.4 µM; in experiment [5], 13.8 µM; in experiment [6], 4.61 µM. For the same molecule, the TGI in experiment [7] is over 100 µM; in [8] it was 14.1 µM; in [9] it was 12.9 µM; in experiment [10], 4.03 µM; in experiment [12], 41 µM.
In the case of `CC1CN=C(Nc2ccc(F)c(Cl)c2)S1` (centres undefined), the TGI in [1], in [2], in experiment [3], in experiment [4], in experiment [5] and in [6] was over 100 µM throughout. In addition, the TGI in experiment [8], in [9], in experiment [10], in experiment [11] and in [12] was over 100 µM in each case.
`S=C(N1CCN(c2ccccc2)CC1)N1CCN(c2ccccc2)CC1`: the TGI is 68.7 µM in [1]; over 100 µM in experiment [2]; over 100 µM in experiment [3]; over 100 µM in [4]; over 100 µM in [5]; over 100 µM in [6]. Besides, the TGI in [7], in [8], in experiment [9], in [11] and in experiment [12] was over 100 µM each time.
On to `CCCNC(=O)N(C)C(=O)N1N=C(c2ccccc2)C1c1ccccc1` (centres undefined), for which the TGI in experiment [1] is 75.8 µM; in [2] it was over 100 µM; in [4] it was over 100 µM; in [5], over 100 µM; in experiment [7] it was over 100 µM; in experiment [8] it was over 100 µM. Further, the TGI in experiment [9], in experiment [10], in experiment [11] and in [12] was over 100 µM each time.
In the case of `CC(=O)/C(C=Nc1c(C)n(C)n(C)c1=O)=C(/O)c1ccccc1`, the TGI in [1], in experiment [2], in experiment [3], in experiment [4], in [5] and in experiment [6] was over 50 µM each time. The TGI in [7], in experiment [9], in experiment [10], in [11] and in experiment [12] was over 50 µM each time.
`O=c1c2ccccc2[nH]c2c(Cl)cc(Cl)c(N3CCCCC3)c12`: the TGI in experiment [1] was over 10 µM; in experiment [2], over 100 µM; in [3], 32.6 µM; in [4], over 100 µM; in [5], over 100 µM; in [7], over 100 µM. In addition, the TGI is over 100 µM in [8]; over 100 µM in experiment [9]; 46.6 µM in experiment [10]; over 100 µM in experiment [11]; 77.9 µM in [12].
As for `COC1/C=C/C(C)C(C(C)C(OC)C(C)CCC(=O)C(C)C(CC(=O)O)OC)OC(=O)/C=C/C=C(\C)CC(OC)CC2=CC(=O)O[C@H](C2)C(C)C(OC)CC(OC)/C=C/C(C)C(OC)C1` (some centres undefined), the TGI in [1], in [2], in experiment [3], in experiment [4], in [5] and in experiment [6] was over 4.35 µM in each case. Also, the TGI in experiment [7] is over 4.35 µM; in [8] it was over 4.35 µM; in experiment [9], 3.1 µM; in experiment [11], over 4.35 µM; in experiment [12], over 4.35 µM.
For the molecule `Nc1nc(=S)n(-c2ccc(Cl)cc2)c2nc3ccccc3cc12`, the TGI in experiment [1], in [2], in [3], in [4], in experiment [5] and in [6] was over 100 µM each time. Also, the TGI in [7], in experiment [8], in experiment [9], in experiment [11] and in experiment [12] was over 100 µM each time.
As for `CCOC(=O)c1cc(C2CCN(Cc3ccccc3)C2=S)c(C(=O)C=[N+]=[N-])[nH]1` (centres undefined), the TGI in experiment [1] is over 100 µM; in experiment [2] it was over 100 µM; in experiment [3], over 100 µM; in experiment [4] it was 40.4 µM; in experiment [5], over 100 µM; in experiment [6], 64.1 µM. Besides, the TGI in experiment [7], in experiment [8], in [9], in experiment [11] and in experiment [12] was over 100 µM in each case.
Take `N#Cc1c(O)c2ccccc2[nH]c1=O`: the TGI in experiment [1], in [2], in experiment [3], in experiment [4], in experiment [5] and in experiment [7] was over 100 µM throughout. The TGI in [8], in experiment [9], in [10], in experiment [11] and in experiment [12] was over 100 µM in each case.
As for `Clc1c2ccccc2nc2c1[nH]c1ccccc12`, the TGI in [1] was over 100 µM; in [2], over 100 µM; in experiment [3] it was 34.3 µM; in experiment [4] it was over 100 µM; in experiment [5], 46.7 µM; in [6] it was over 100 µM. For the same molecule, the TGI in experiment [7], in experiment [8], in experiment [9], in experiment [10] and in [12] was over 100 µM each time.
For the molecule `COc1cc2c[n+](C)c3c(c2cc1OC)Cc1cc2c(cc1-3)OCO2`, the TGI in experiment [1], in experiment [3], in [4], in experiment [5], in experiment [7] and in [8] was over 100 µM each time. Moreover, the TGI in [9], in [10], in experiment [11] and in [12] was over 100 µM each time.
Regarding `CC1(C)OC(=O)C(Cc2ccccc2)(Cc2ccccc2)C(=O)O1`, the TGI in [1], in experiment [2], in experiment [3], in experiment [4], in [5] and in experiment [6] was over 100 µM throughout. In addition, the TGI in experiment [7], in experiment [8], in experiment [9], in experiment [10] and in [11] was over 100 µM in each case.
As for `C1CN2CCNCCN(CCN1)CC2`, the TGI in experiment [1], in experiment [3], in experiment [4], in experiment [5], in experiment [6] and in experiment [7] was over 100 µM in each case. For the same molecule, the TGI in experiment [8], in experiment [9], in [10], in [11] and in experiment [12] was over 100 µM in each case.

The record behind these values is PubChem BioAssay (NCI).
